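How tested: cells in 96-well plates exposed to compound for 48 hours at five concentrations. The concentration for full growth arrest is given as TGI.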 Where a SMILES comes first, the peptide text is derived from it. The star is where a group is joined. Cbz = O=C(OCc1ccccc1)*
Experiments:
Test in all cases: NCI tumour cell line growth inhibition, 48 h
[1] = test system: HOP-62 NSCLC
[2] = test system: MALME-3M melanoma
[3] = test system: MDA-MB-231 breast
[4] = test system: NCI-H226 lung
[5] = test system: NCI/ADR-RES ovarian
[6] = test system: OVCAR-4 ovarian
[7] = test system: OVCAR-5 ovarian
[8] = test system: OVCAR-8 ovarian
[9] = test system: RPMI-8226 leukemia
[10] = test system: SK-MEL-2 melanoma
[11] = test system: U251 CNS
[12] = test system: UACC-62 melanoma
[13] = test system: HL-60(TB) leukemia

With `CC(=O)N1N=C(c2c(O)ccc3ccccc23)CC1c1ccc(Cl)cc1` (stereo not given) the TGI [1] was 37 µM, the TGI [2] was 76.8 µM and the TGI [3] was 43.5 µM. For the same compound, the TGI [4] was over 100 µM, the TGI [5] was 43.9 µM and the TGI [6] was over 100 µM. For the same compound, the TGI [7] was 58 µM, the TGI [8] was over 100 µM and the TGI [9] was 45.8 µM. The TGI [10] was 38.2 µM, the TGI [11] was 63.1 µM and the TGI [12] was 27.6 µM.

Compound `CC(C)c1ccc2[nH]c(O)c(C3=Nc4ccccc4C3=O)c2c1` has a TGI [1] of 21 µM, a TGI [2] of over 100 µM and a TGI [3] of 48 µM. It also gave a TGI [4] of 18.7 µM, a TGI [5] of over 100 µM and a TGI [6] of 12.8 µM. For the same compound, the TGI [7] was over 100 µM, the TGI [8] was over 100 µM and the TGI [9] was over 100 µM. The TGI [10] was 53.8 µM, the TGI [11] was 41.4 µM and the TGI [12] was 69.8 µM.

With `CCOC(=O)C(CC(=O)OC)NC(=O)C(CC(=O)OC)NC(=O)C(CC(=O)OC)NC(=O)C(CC(=O)OC)NC(=O)OCc1ccccc1` (stereo not given) (Cbz-D(OMe)D(OMe)D(OMe)D(OMe)-OEt; configuration not given here) the TGI [13] was over 100 µM, the TGI [1] was over 100 µM and the TGI [2] was over 100 µM. For the same compound, the TGI [3] was over 100 µM, the TGI [4] was over 100 µM and the TGI [7] was over 100 µM. For the same compound, the TGI [8] was over 100 µM, the TGI [9] was over 100 µM and the TGI [10] was over 100 µM. It also gave a TGI [11] of over 100 µM and a TGI [12] of over 100 µM.

With `CC1SC(=O)SC1C` (stereo not given) the TGI [13] was over 100 µM, the TGI [1] was over 100 µM and the TGI [3] was over 100 µM. The TGI [5] was over 100 µM, the TGI [6] was over 100 µM and the TGI [7] was over 100 µM. For the same compound, the TGI [8] was over 100 µM, the TGI [9] was over 100 µM and the TGI [11] was over 100 µM.

In the case of `Cc1cc(-c2nc3cc(O)ccc3s2)ccc1N`, the TGI [13] was over 100 µM, the TGI [1] was over 100 µM and the TGI [2] was over 100 µM. It also gave a TGI [3] of over 100 µM, a TGI [4] of over 100 µM and a TGI [5] of over 100 µM. It also gave a TGI [6] of over 100 µM, a TGI [7] of 75.5 µM and a TGI [8] of over 100 µM. The TGI [10] was 74.4 µM, the TGI [11] was over 100 µM and the TGI [12] was 44.2 µM.

`CC1=NN(C(=O)c2ccc(Cl)cc2)C(=O)/C1=C/c1ccc(O)cc1` showed a TGI [13] of over 100 µM, a TGI [1] of over 100 µM and a TGI [2] of over 100 µM. The TGI [4] was over 100 µM, the TGI [6] was over 100 µM and the TGI [7] was over 100 µM. The TGI [8] was over 100 µM, the TGI [9] was over 100 µM and the TGI [10] was over 100 µM. For the same compound, the TGI [11] was over 100 µM and the TGI [12] was over 100 µM.

Compound `CN(C)CCCNc1ccc2nnn3c4ccc(OC(=O)c5ccc([N+](=O)[O-])cc5)cc4c(=O)c1c23` has a TGI [1] of over 33.1 µM, a TGI [2] of 27.2 µM and a TGI [3] of 23.3 µM. It also gave a TGI [5] of 37.5 µM, a TGI [6] of 10.9 µM and a TGI [7] of 28 µM. The TGI [8] was 20.8 µM, the TGI [9] was 18.6 µM and the TGI [10] was over 52.1 µM. The TGI [11] was 33.9 µM and the TGI [12] was 37 µM.

In the case of `CN(C)CCNC(=O)c1cc(-c2nccn2C)nc2ccccc12`, the TGI [13] was over 100 µM, the TGI [1] was over 100 µM and the TGI [2] was over 100 µM. It also gave a TGI [3] of over 100 µM, a TGI [4] of over 100 µM and a TGI [5] of over 100 µM. For the same compound, the TGI [7] was over 100 µM, the TGI [8] was over 100 µM and the TGI [9] was over 100 µM. The TGI [10] was over 100 µM, the TGI [11] was over 100 µM and the TGI [12] was over 100 µM.

In the case of `O=C(NCC(C(=O)OCc1ccccc1)C(=O)OCc1ccccc1)OCc1ccccc1`, the TGI [1] was over 100 µM, the TGI [2] was over 100 µM and the TGI [4] was over 100 µM. It also gave a TGI [5] of over 100 µM, a TGI [7] of over 100 µM and a TGI [8] of over 100 µM. For the same compound, the TGI [9] was over 100 µM, the TGI [10] was over 100 µM and the TGI [11] was over 100 µM. It also gave a TGI [12] of over 100 µM.

`O=C(n1c(=O)n(-c2ccc(Cl)cc2)c(=O)n1C(=O)C(Cl)(Cl)Cl)C(Cl)(Cl)Cl` showed a TGI [13] of over 100 µM, a TGI [1] of over 100 µM and a TGI [2] of over 100 µM. The TGI [3] was over 100 µM, the TGI [5] was over 100 µM and the TGI [6] was over 100 µM. For the same compound, the TGI [8] was over 100 µM, the TGI [9] was over 100 µM and the TGI [10] was over 100 µM. The TGI [11] was over 100 µM and the TGI [12] was over 100 µM.

In the case of `Fc1ccc(Nc2nnc(-c3ccccn3)s2)cc1`, the TGI [13] was over 100 µM, the TGI [1] was over 100 µM and the TGI [2] was over 100 µM. It also gave a TGI [3] of over 100 µM, a TGI [5] of over 100 µM and a TGI [6] of over 100 µM. For the same compound, the TGI [7] was over 100 µM, the TGI [8] was over 100 µM and the TGI [9] was over 100 µM. For the same compound, the TGI [10] was over 100 µM, the TGI [11] was over 100 µM and the TGI [12] was over 100 µM.

`Nc1ccccc1OCc1cc(=O)c(OCc2ccccc2)co1` showed a TGI [13] of over 100 µM, a TGI [1] of over 100 µM and a TGI [2] of over 100 µM. For the same compound, the TGI [3] was 55.8 µM, the TGI [5] was over 100 µM and the TGI [6] was over 100 µM. The TGI [7] was over 100 µM, the TGI [8] was over 100 µM and the TGI [9] was over 100 µM. For the same compound, the TGI [11] was over 100 µM and the TGI [12] was 4.49 µM.

With `CCN1C[C@]2(C)CC[C@H](OCc3ccccc3)C34C5C[C@@H]6CC[C@](O)(C(C[C@@H]32)C14)C5[C@H]6OCc1ccccc1` (stereo not given in full) the TGI [1] was over 100 µM, the TGI [2] was over 100 µM and the TGI [3] was over 100 µM. The TGI [4] was over 100 µM, the TGI [5] was over 100 µM and the TGI [6] was over 100 µM. It also gave a TGI [7] of over 100 µM, a TGI [8] of over 100 µM and a TGI [9] of over 100 µM. The TGI [10] was over 100 µM, the TGI [11] was over 100 µM and the TGI [12] was over 100 µM.

`O=C(/C=C(\O)c1ccc(Cl)cc1)C(=O)NN=C(c1ccccc1)c1ccccc1` was tested, and the TGI [1] was over 100 µM, the TGI [2] was over 100 µM and the TGI [3] was 65.1 µM. For the same compound, the TGI [4] was over 100 µM, the TGI [5] was 50.3 µM and the TGI [6] was over 100 µM. It also gave a TGI [7] of over 100 µM, a TGI [8] of 97.6 µM and a TGI [10] of over 100 µM. The TGI [11] was over 100 µM and the TGI [12] was over 100 µM.

For `CO/N=C(/C(=O)OC)c1ccccc1COc1cccc(C(F)(F)F)c1`, the TGI [13] was 49 µM, the TGI [1] was over 100 µM and the TGI [2] was 46.1 µM. The TGI [3] was over 100 µM, the TGI [4] was over 100 µM and the TGI [5] was over 100 µM. The TGI [6] was over 100 µM, the TGI [7] was over 100 µM and the TGI [9] was 25.4 µM. For the same compound, the TGI [10] was over 100 µM, the TGI [11] was over 100 µM and the TGI [12] was over 100 µM.

Compound `O=[N+]([O-])/C=C/COCc1cc2c(cc1Br)OCO2` has a TGI [1] of 41.9 µM, a TGI [3] of 33 µM and a TGI [5] of 41.6 µM. For the same compound, the TGI [6] was 36.7 µM, the TGI [7] was 34.3 µM and the TGI [8] was over 100 µM. The TGI [9] was over 100 µM, the TGI [11] was 30.7 µM and the TGI [12] was 30.1 µM.

With `Cc1nn(C(=O)Cc2ccccc2)c2c1C(c1ccccc1[N+](=O)[O-])SC(N)=N2` (stereo not given) the TGI [13] was over 100 µM, the TGI [1] was over 100 µM and the TGI [2] was over 100 µM. It also gave a TGI [3] of over 100 µM, a TGI [4] of over 100 µM and a TGI [8] of over 100 µM. For the same compound, the TGI [9] was over 100 µM and the TGI [12] was over 100 µM.

`CSC(=S)OC1C(CO[Si](C)(C)C(C)(C)C)OC2OC(C)(C)OC21` (stereo not given) was tested, and the TGI [1] was 34.4 µM, the TGI [2] was 32.4 µM and the TGI [3] was 33.9 µM. For the same compound, the TGI [4] was 29.7 µM, the TGI [5] was 36.2 µM and the TGI [6] was over 100 µM. The TGI [7] was 37.6 µM, the TGI [8] was 95.8 µM and the TGI [9] was 36.5 µM. It also gave a TGI [10] of 28.5 µM, a TGI [11] of 31.8 µM and a TGI [12] of 36.1 µM.

With `COC(=O)c1c(O)ccc2c1c1c(n2-c2ccc(OC)cc2)C(=O)c2ccccc2C1=O` the TGI [13] was over 100 µM, the TGI [1] was 34.5 µM and the TGI [2] was 58.4 µM. It also gave a TGI [3] of 32.7 µM, a TGI [4] of 73.3 µM and a TGI [5] of 48 µM. The TGI [6] was 38.2 µM, the TGI [7] was 75.4 µM and the TGI [8] was 33.7 µM. For the same compound, the TGI [9] was over 100 µM, the TGI [10] was over 100 µM and the TGI [11] was 28.4 µM.
